Assay results reported in ChEMBL document CHEMBL1140634, “The biology and chemistry of hyperlipidemia” (Bioorg Med Chem, 2007).

Experiments:
[1] = biological target: T1, Pancreatic triacylglycerol lipase (Homo sapiens, UniProt P16233); experiment: Inhibition of pancreatic lipase
T1 sequence (P16233 whole entry): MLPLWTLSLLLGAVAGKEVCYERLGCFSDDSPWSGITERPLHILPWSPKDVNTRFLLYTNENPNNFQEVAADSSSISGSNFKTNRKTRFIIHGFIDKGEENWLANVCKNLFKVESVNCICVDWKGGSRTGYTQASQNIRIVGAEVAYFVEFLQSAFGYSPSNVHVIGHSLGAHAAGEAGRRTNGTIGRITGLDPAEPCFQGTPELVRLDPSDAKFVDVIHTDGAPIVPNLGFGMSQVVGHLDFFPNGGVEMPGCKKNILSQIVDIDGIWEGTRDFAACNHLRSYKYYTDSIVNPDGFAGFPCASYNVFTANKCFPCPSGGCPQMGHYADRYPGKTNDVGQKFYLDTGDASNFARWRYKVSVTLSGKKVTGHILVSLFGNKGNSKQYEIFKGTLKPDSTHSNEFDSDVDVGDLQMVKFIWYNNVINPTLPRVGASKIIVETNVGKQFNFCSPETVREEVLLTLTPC

[2] = Inhibition of ferrous/ascorbate induced lipid peroxidation of microsomal membrane lipids; format: functional
[3] = biological target: T2, Lanosterol 14-alpha demethylase (Rattus norvegicus, UniProt Q64654); experiment: Inhibition of rat liver LDM
T2 sequence (Q64654 whole entry): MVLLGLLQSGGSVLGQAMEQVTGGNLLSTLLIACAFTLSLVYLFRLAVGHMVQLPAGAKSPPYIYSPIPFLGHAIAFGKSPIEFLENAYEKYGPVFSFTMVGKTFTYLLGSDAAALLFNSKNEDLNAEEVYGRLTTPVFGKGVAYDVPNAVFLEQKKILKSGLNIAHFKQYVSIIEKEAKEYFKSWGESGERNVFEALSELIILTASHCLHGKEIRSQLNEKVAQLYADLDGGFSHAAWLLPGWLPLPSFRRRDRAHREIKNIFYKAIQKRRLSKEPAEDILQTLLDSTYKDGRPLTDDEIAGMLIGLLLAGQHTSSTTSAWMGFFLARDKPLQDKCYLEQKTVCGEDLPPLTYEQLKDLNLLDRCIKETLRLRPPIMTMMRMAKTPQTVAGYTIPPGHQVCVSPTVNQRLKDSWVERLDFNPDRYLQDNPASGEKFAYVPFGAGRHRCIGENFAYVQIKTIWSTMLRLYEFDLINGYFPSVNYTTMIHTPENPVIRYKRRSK

[4] = Inhibition of pig OSC; set-up: species or system Sus scrofa
Lanosterol synthase = biological target: T3, Lanosterol synthase (Candida albicans (strain SC5314 / ATCC MYA-2876) (Yeast), UniProt Q04782)
T3 sequence (Q04782 whole entry): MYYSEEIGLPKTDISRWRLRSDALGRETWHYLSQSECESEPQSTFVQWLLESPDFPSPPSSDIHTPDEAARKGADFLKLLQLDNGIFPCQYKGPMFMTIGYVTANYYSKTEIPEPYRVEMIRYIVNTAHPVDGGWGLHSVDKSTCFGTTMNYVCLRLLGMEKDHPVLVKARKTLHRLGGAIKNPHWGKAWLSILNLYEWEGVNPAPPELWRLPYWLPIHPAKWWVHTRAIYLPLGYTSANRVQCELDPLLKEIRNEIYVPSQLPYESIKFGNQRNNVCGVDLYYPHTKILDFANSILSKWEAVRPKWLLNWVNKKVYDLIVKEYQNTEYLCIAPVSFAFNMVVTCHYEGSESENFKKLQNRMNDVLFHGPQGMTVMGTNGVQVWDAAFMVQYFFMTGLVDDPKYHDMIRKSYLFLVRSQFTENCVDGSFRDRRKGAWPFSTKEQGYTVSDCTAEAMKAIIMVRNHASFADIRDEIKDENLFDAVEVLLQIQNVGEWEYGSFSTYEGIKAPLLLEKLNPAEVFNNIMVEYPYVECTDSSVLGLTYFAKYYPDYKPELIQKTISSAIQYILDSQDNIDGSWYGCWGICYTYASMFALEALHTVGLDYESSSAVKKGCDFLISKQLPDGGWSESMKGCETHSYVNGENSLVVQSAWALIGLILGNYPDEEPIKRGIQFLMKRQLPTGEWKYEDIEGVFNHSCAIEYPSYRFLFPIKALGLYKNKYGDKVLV
Description: Inhibition of Candida albicans OSC

Rhesus monkey = experiment: Decrease in nonHDL-C level in rhesus monkey plasma at 50 mg/kg, bid for 21 days; format: functional, Macaca mulatta; set-up: scale not given: the % may be the effect or the level left
Rattus norvegicus [5] = organism: Rattus norvegicus; experiment: Inhibition of [14C]cholesterol synthesis in rat liver after 1 hr; format: functional
[6] = Inhibition of rat liver microsomal squalene synthase
Rattus norvegicus [7] = organism: Rattus norvegicus; experiment: Reduction of cholesterol absorption in normal diet fed rat; format: functional
[8] = Inhibition of HMG-CoA synthase
[9] = biological target: T4, Lanosterol 14-alpha demethylase (Homo sapiens, UniProt Q16850); experiment: Inhibition of LDM in human HepG2 cells at 2 nM; format: cell-based
T4 sequence (Q16850 whole entry): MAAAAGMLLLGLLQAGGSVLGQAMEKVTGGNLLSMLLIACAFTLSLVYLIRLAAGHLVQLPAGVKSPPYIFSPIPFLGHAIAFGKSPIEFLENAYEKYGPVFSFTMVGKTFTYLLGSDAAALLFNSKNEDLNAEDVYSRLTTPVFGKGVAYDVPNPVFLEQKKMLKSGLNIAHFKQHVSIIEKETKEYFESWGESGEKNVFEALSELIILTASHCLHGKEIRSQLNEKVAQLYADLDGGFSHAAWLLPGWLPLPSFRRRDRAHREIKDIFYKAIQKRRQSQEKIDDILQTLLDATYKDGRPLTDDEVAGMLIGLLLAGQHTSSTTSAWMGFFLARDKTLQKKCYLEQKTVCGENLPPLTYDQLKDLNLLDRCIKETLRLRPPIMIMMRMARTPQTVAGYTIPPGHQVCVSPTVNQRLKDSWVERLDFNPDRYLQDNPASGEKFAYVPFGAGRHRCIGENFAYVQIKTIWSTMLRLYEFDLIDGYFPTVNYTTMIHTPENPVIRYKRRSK

[10] = biological target: T5, 3-hydroxy-3-methylglutaryl-coenzyme A reductase (Homo sapiens) (UniProt P04035); experiment: Inhibition of HMG-CoA reductase relative to control; settings: concentration not given here
T5 sequence (whole entry): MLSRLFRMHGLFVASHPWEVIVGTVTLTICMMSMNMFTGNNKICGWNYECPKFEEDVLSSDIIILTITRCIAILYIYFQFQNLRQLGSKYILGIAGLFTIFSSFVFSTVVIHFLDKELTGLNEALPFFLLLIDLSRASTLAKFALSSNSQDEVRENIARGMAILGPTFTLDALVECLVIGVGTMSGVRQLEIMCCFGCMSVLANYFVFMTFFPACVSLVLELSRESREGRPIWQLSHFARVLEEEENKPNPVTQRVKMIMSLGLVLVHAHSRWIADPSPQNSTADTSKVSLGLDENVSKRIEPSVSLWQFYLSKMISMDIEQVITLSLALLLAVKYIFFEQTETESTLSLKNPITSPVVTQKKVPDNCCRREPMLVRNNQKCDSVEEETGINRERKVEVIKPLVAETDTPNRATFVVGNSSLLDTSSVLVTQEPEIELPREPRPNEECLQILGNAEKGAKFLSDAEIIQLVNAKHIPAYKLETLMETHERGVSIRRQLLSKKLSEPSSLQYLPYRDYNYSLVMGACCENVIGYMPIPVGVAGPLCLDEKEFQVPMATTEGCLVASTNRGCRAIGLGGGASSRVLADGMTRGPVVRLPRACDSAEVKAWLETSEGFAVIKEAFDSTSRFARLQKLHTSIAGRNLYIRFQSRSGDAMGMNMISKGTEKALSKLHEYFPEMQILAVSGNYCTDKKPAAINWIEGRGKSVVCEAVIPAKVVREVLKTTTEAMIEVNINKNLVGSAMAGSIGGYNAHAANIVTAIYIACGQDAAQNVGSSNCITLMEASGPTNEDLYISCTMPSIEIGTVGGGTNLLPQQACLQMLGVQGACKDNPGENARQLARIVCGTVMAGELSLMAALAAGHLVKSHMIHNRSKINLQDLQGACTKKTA

Oryctolagus cuniculus = organism: Oryctolagus cuniculus; experiment: Decrease in aortic arch lesions in cholesterol fed rabbit; format: functional; set-up: scale not given: the % may be the effect or the level left
Rattus norvegicus [11] = experiment: Reduction in LDL cholesterol in rat plasma at 20 mg/kg, po qd for 7 days; format: functional; set-up: scale not given: the % may be the effect or the level left
HepG2 [12] = experiment: Inhibition of cholesterol synthesis in human HepG2 cells; format: functional
HepG2 [13] = experiment: Inhibition of fatty acid synthesis in human HepG2 cells; format: functional
Rattus norvegicus [14] = organism: Rattus norvegicus; experiment: Inhibition of fatty acid synthesis in rat; format: functional
Rattus norvegicus [15] = organism: Rattus norvegicus; experiment: Inhibition of cholesterol synthesis in rat; format: functional
Rattus norvegicus [16] = experiment: Inhibition of cholesterol biosynthesis in po dosed Sprague-Dawley rat; format: functional

## CC(C)c1cc2c(c(O)c1O)[C@@]13CCCC(C)(C)[C@@H]1C[C@@H]2OC3=O [CARNOSOL]
[1]
  IC50: 13000 nM

## CN1CC(O)(c2ccc(-c3ccccc3)cc2)OC2CCCCC21 (centres undefined)
[2]
  IC50: 250000 nM

## CC(C)c1cc2c(c(O)c1O)[C@@]1(C(=O)O)CCCC(C)(C)[C@@H]1CC2 [CARNOSIC ACID]
[1]
  IC50: 36000 nM

## CC(C)CCC[C@@H](C)[C@H]1C/C(=N\O)[C@@]2(C)[C@@H]3CC[C@@]4(C)C[C@@H](O)CC[C@]4(O)[C@H]3CC[C@]12C
[3]
  IC50: 55000 nM

## CC(C)=CCCC(C)SCC/C(C)=C/CC/C=C(\C)CC/C=C(\C)CCC1OC1(C)C (centres undefined)
[4]
  IC50: 50 nM
  Ki: 500 nM
Lanosterol synthase
  IC50: 0.22 nM

## F/C(COc1ccc2c(c1)[nH]c1ccccc12)=C1/CN2CCC1CC2
Rhesus monkey
  Activity: 37%
Rattus norvegicus [5]
  ED50: 32 mg/kg

## COc1ccccc1/C(C)=C/CN(C)CCCC(P(=O)(O)O)P(=O)(O)O
[6]
  IC50: 3.6 nM

## CC1CCN(C(=O)Oc2ccc(Oc3ccccc3)cc2)CC1
Rattus norvegicus [7]
  ED50: 10 mg/kg

## C/C=C/CCCC/C=C/C(=O)N[C@@H](C[C@@]1(O)C(=O)C2OC2C2OC21)C(=O)OC (some centres undefined)
[8]
  IC50: 31000 nM

## C/C=C/CCCC/C=C/C(=O)N[C@H](C[C@]1(O)C(=O)C2OC2C2OC21)C(=O)OC (some centres undefined)
[8]
  IC50: 98 nM

## CC(C)CCC[C@@H](C)[C@H]1C=C[C@@]2(CC(=O)O)C3=C(CC[C@]12C)[C@@]1(C)CC[C@H](O)C(C)(C)[C@@H]1CC3
[9]
  inhibition at 0.002 µM: 50%
[10]
  inhibition: 30%

## CCC(CC)CC1(C(=O)Nc2ccccc2SC(=O)C(C)C)CCCCC1 [DALCETRAPIB]
Oryctolagus cuniculus
  Activity: 70%

## CCOc1ccc(CC(=O)OC[C@@H]2[C@H](CC)C(=O)N2Cc2ccc(S(=O)(=O)O)cc2)cc1OCC
[8]
  IC50: 2 nM

## O[C@@]1(c2ccc(-c3ccc4ncccc4c3)cc2)CN2CCC1CC2
[6]
  IC50: 0.6 nM
Rattus norvegicus [11]
  Activity: 43%
Rattus norvegicus [5]
  ED50: 5 mg/kg

## O=C(O)C[C@@]1(O)C[C@@H](CCCCCCc2ccc(Cl)cc2Cl)OC1=O
HepG2 [12]
  Inhibition: 91%
HepG2 [13]
  Inhibition: 82%
Rattus norvegicus [14]
  Inhibition: 39%
Rattus norvegicus [15]
  Inhibition: 76%

## COc1ccccc1/C(C)=C/CN(C)CCCC(P(=O)(O)OCOC(=O)C(C)(C)C)P(=O)(OCOC(=O)C(C)(C)C)OCOC(=O)C(C)(C)C (centres undefined)
Rattus norvegicus [16]
  ED50: 1.6 mg/kg

## C/C=C/CCCC/C=C/C(=O)NC(CC1(O)C(=O)C2OC2C2OC21)C(=O)OC (centres undefined)
[8]
  IC50: 150 nM

## O[C@]1(c2ccc(-c3ccc4ncccc4c3)cc2)CN2CCC1CC2
[6]
  IC50: 0.6 nM
Rattus norvegicus [11]
  Activity: 50%
Rattus norvegicus [5]
  ED50: 5 mg/kg
